target: T1, human 11βHSD1 enzyme (Homo sapiens, UniProt P28845); assay: 11βHSD1 competitive HTRF assay (conversion of cortisone to cortisol); assay type: biochemical; conditions: recombinant N terminal 6-His tagged full length human 11βHSD1; cortisone 160 nM; 25 minutes at 37° C.; pH 7.5
T1 construct: N terminal 6-His tagged full length human 11βHSD1 enzyme; 6-His (N); made in house
Protocol: The evaluation of compounds described herein was carried out using a baculovirus expressed N terminal 6-His tagged full length human 11βHSD1 enzyme (*1). The enzyme was purified from a detergent solublised cell lysate, using a copper chelate column. Inhibitors of 11βHSD1 reduce the conversion of cortisone to cortisol, which is identified by an increase in signal, in the above assay.
Compounds to be tested were dissolved in dimethyl sulphoxide (DMSO) to 10 mM and diluted further in assay buffer containing 1% DMSO to 10 fold the final assay concentration. Diluted compounds were then plated into black 384 well plates (Matrix, Hudson N.H., USA).
The assay plates were incubated for 25 minutes at 37° C. after which time the reaction was stopped by the addition of 10 μl of 0.5 mM glycerrhetinic acid plus conjugated cortisol (D2**). 10 μl of anti-cortisol Cryptate was then added and the plates sealed and incubated for 6 hours at room temperature. Fluorescence at 665 nm and 620 nm was measured and the 665 nm:620 nm ratio calculated using an Envision plate reader.
**D2 is a cortisol tracer which competes with native cortisol produced in the reaction for the monoclonal anti-cortisol antibody labelled with europium-cryptate. The antibody will fluoresce when it is bound to the cortisol tracer complex (D2 labelled with cortisol and glycyrrhetinic acid coupled together). Thus providing an accurate measure of 11beta-HSD1 activity.

T1 sequence (P28845 whole entry): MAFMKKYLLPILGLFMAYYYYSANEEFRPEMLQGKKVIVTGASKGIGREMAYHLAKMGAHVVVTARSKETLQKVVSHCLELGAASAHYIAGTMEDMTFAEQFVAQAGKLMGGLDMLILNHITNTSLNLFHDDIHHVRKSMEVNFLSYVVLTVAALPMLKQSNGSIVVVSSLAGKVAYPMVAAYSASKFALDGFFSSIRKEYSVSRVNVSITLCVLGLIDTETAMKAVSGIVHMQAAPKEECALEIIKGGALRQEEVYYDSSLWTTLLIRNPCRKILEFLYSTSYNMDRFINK

Row | IC50 [nM] | Structure (SMILES)
1 | 24 | O=C(N[C@H]1C2CC3CC1C[C@@](O)(C3)C2)c1cnc(NC2CCS(=O)(=O)C2)nc1C1CCCC1 (stereo partly drawn) [Example 5, 4-cyclopentyl-2-[(1,1-dioxothiolan-3-yl)amino]-N-(5-hydroxy-2-adamantyl)pyrimidine-5-carboxamide]
2 | 20 | CN1CC(Nc2ncc(C(=O)N[C@H]3C4CC5CC3C[C@@](O)(C5)C4)c(C3CCCC3)n2)CC1=O (stereo partly drawn) [Example 16, 4-cyclopentyl-N-(5-hydroxy-2-adamantyl)-2-[(1-methyl-5-oxo-pyrrolidin-3-yl)amino]pyrimidine-5-carboxamide]
3 | 15 | CCN1CC(Nc2ncc(C(=O)N[C@H]3C4CC5CC3C[C@@](O)(C5)C4)c(C3CCCC3)n2)CC1=O (stereo partly drawn) [Example 17, 4-cyclopentyl-2-[(1-ethyl-5-oxo-pyrrolidin-3-yl)amino]-N-(5-hydroxy-2-adamantyl)pyrimidine-5-carboxamide]
4 | 23 | CN1C(=O)CC[C@@H]1CNc1ncc(C(=O)N[C@H]2C3CC4CC2C[C@@](O)(C4)C3)c(C2CCCC2)n1 [Example 18, 4-cyclopentyl-N-(5-hydroxy-2-adamantyl)-2-[[(2R)-1-methyl-5-oxo-pyrrolidin-2-yl]methylamino]pyrimidine-5-carboxamide]
5 | 46 | CC(C)c1nc(N[C@H]2CCOC2)ncc1C(=O)N[C@H]1C2CC3CC1C[C@@](O)(C3)C2 [Example 20, N-(5-hydroxy-2-adamantyl)-4-isopropyl-2-[[(3S)-tetrahydrofuran-3-yl]amino]pyrimidine-5-carboxamide]
6 | 42 | CC(C)c1nc(N[C@@H]2CCOC2)ncc1C(=O)N[C@H]1C2CC3CC1C[C@@](O)(C3)C2 [Example 21, N-(5-hydroxy-2-adamantyl)-4-isopropyl-2-[[(3R)-tetrahydrofuran-3-yl]amino]pyrimidine-5-carboxamide]
7 | 25 | O=C(N[C@H]1C2CC3CC1C[C@@](O)(C3)C2)c1cnc(N[C@@H]2CCOC2)nc1C(F)(F)F [Example 22, N-(5-hydroxy-2-adamantyl)-2-[[(3R)-oxolan-3-yl]amino]-4-(trifluoromethyl)pyrimidine-5-carboxamide]
8 | 95 | O=C(N[C@H]1C2CC3CC1C[C@@](O)(C3)C2)c1cnc(N[C@H]2CCOC2)nc1C(F)(F)F [Example 23, N-(5-hydroxy-2-adamantyl)-2-[[(3S)-oxolan-3-yl]amino]-4-(trifluoromethyl)pyrimidine-5-carboxamide]
9 | 45 | CCOc1nc(N[C@@H]2CCOC2)ncc1C(=O)N[C@H]1C2CC3CC1C[C@@](O)(C3)C2 [Example 24, 4-Ethoxy-N-(5-hydroxy-2-adamantyl)-2-[[(3R)-tetrahydrofuran-3-yl]amino]pyrimidine-5-carboxamide]
10 | 37 | CCOc1nc(N[C@H]2CCOC2)ncc1C(=O)N[C@H]1C2CC3CC1C[C@@](O)(C3)C2 [Example 25, 4-Ethoxy-N-(5-hydroxy-2-adamantyl)-2-[[(3S)-tetrahydrofuran-3-yl]amino]pyrimidine-5-carboxamide]
11 | 19 | CCCOc1nc(N[C@@H]2CCOC2)ncc1C(=O)NC1C2CC3CC1CC(O)(C3)C2 (stereo partly drawn) [Example 33, N-(5-hydroxy-2-adamantyl)-4-propoxy-2-[[(3R)-tetrahydrofuran-3-yl]amino]pyrimidine-5-carboxamide]
12 | 21 | CCCOc1nc(N[C@H]2CCOC2)ncc1C(=O)N[C@H]1C2CC3CC1C[C@@](O)(C3)C2 [Example 34, N-(5-hydroxy-2-adamantyl)-4-propoxy-2-[[(3S)-tetrahydrofuran-3-yl]amino]pyrimidine-5-carboxamide]
13 | 777 | O=C(N[C@H]1C2CC3CC1C[C@@](O)(C3)C2)c1cnc(N[C@@H]2CCOC2)nc1N1CCCC1 [Example 37, N-(5-hydroxy-2-adamantyl)-4-pyrrolidin-1-yl-2-[[(3R)-tetrahydrofuran-3-yl]amino]pyrimidine-5-carboxamide]
14 | 1600 | O=C(N[C@H]1C2CC3CC1C[C@@](O)(C3)C2)c1cnc(N[C@H]2CCOC2)nc1N1CCCC1 [Example 38, N-(5-hydroxy-2-adamantyl)-4-pyrrolidin-1-yl-2-[[(3S)-tetrahydrofuran-3-yl]amino]pyrimidine-5-carboxamide]
15 | 708 | O=C(N[C@H]1C2CC3CC1C[C@@](O)(C3)C2)c1cnc(N[C@@H]2CCOC2)nc1-n1cccn1 [Example 39, N-(5-hydroxy-2-adamantyl)-4-pyrazol-1-yl-2-[[(3R)-tetrahydrofuran-3-yl]amino]pyrimidine-5-carboxamide]
16 | 2270 | O=C(N[C@H]1C2CC3CC1C[C@@](O)(C3)C2)c1cnc(N[C@H]2CCOC2)nc1-n1cccn1 [Example 40, N-(5-hydroxy-2-adamantyl)-4-pyrazol-1-yl-2-[[(3S)-tetrahydrofuran-3-yl]amino]pyrimidine-5-carboxamide]
17 | 46 | CN(C(=O)c1cnc(N[C@@H]2CCOC2)nc1C1CCCC1)[C@H]1C2CC3CC1C[C@@](O)(C3)C2 [Example 41, 4-Cyclopentyl-N-(5-hydroxy-2-adamantyl)-N-methyl-2-[[(3R)-oxolan-3-yl]amino]pyrimidine-5-carboxamide]
18 | 32 | CN(C(=O)c1cnc(N[C@H]2CCOC2)nc1C1CCCC1)[C@H]1C2CC3CC1C[C@@](O)(C3)C2 [Example 42, 4-cyclopentyl-N-(5-hydroxy-2-adamantyl)-N-methyl-2-[[(3S)-oxolan-3-yl]amino]pyrimidine-5-carboxamide]
19 | 17 | NC(=O)[C@]12CC3CC(C1)[C@H](NC(=O)c1cnc(N[C@H]4CCOC4)nc1C1CCCC1)C(C3)C2 [Example 43, N-(5-carbamoyl-2-adamantyl)-4-cyclopentyl-2-[[(3S)-tetrahydrofuran-3-yl]amino]pyrimidine-5-carboxamide]
20 | 424 | O=C(N[C@H]1C2CC3CC1C[C@@](C(=O)O)(C3)C2)c1cnc(N[C@H]2CCOC2)nc1C1CCCC1 [Example 44, 4-[[4-cyclopentyl-2-[[(3S)-tetrahydrofuran-3-yl]amino]pyrimidine-5-carbonyl]amino]adamantane-1-carboxylic acid]
21 | 273 | CS(=O)(=O)[C@]12CC3CC(C1)[C@H](NC(=O)c1cnc(N[C@H]4CCOC4)nc1C1CCCC1)C(C3)C2 [Example 45, 4-cyclopentyl-N-(5-methylsulfonyl-2-adamantyl)-2-[[(3S)-tetrahydrofuran-3-yl]amino]pyrimidine-5-carboxamide]

Reference: patent US20110092526A1, “Adamantyl Iminocarbonyl-Substituted Pyrimidines As Inhibitors Of 11-Beta-HSD1 826” (ASTRAZENECA AB, priority 2009, published 2011)
